Data as given in US12459894B2, “Orally active melanocortin receptor-4 compounds” (Palatin Technologies, Inc., priority 2018, dated 2025).
Marks after values point to notes of the source that are not given here.

Assays:
MC4r [1] = molecular target: T1, MC4r (Homo sapiens, UniProt P32245); test: Competitive inhibition binding assay, MC4r; set-up: expressed in transfected cells; host or cells: HEK-293 (membrane homogenates); conditions: binding studies
Procedure: A competitive inhibition binding assay is performed using membrane homogenates prepared from HEK-293 cells that express recombinant hMC1ra, hMC4r, hMC3r, or hMC5r, and from B16-F10 mouse melanoma cells (containing endogenous MC1r). In the examples that follow, all values are for human recombinant receptors unless otherwise noted. Assays are performed in 96 well GF/B Millipore multiscreen filtration plates (MAFB NOB10) pre-coated with 0.5% bovine serum albumin (Fraction V). […] After incubation for 60 to 90 minutes at 37° C., the assay mixture is filtered and the membranes washed three times with ice-cold buffer. Filters are dried and counted in a gamma counter for bound radioactivity.
Maximal specific binding (100%) is defined as the difference in radioactivity (cpm) bound to cell membranes in the absence and presence of 1 μM NDP-α-MSH. […] Each assay is conducted in duplicate or triplicate and the actual mean values are described, with results less than 0% reported as 0%. Ki values for test compounds are determined using Graph-Pad Prism® curve-fitting software.
Competitive Binding Assay Using Eu-NDP-α-MSH. […] The plates were incubated on a shaker for 15 minutes and read at 340 nm excitation and 615 nm emission wavelengths. […] Ki values were determined by curve-fitting with Graph-Pad Prism® software using a one-site fixed-slope competition binding model.

MC4r [2] = molecular target: T1, MC4r; test: Functional cAMP study in human MC4r expression system approximating maximal physiologic receptor densities; type: cell-based; set-up: host or cells: TREx-293 transfected with pcDNA4/TO/MC4R
Procedure: Assay for Agonist Activity. Accumulation of intracellular cAMP was examined as a measure of the ability of the peptides of the present invention to elicit a functional response in HEK-293 cells that express MC4-R. Confluent HEK-293 cells that express recombinant hMC4-R were detached from culture plates by incubation in enzyme-free cell dissociation buffer. Dispersed cells were suspended in Hanks' Balanced Salt Solution containing 10 mM HEPES (pH 7.5), 1 mM MgCl2, 1 mM glutamine, 0.5% albumin and 0.3 mM 3-isobutyl-1-methyl-xanthine (IBMX), a phosphodiesterase inhibitor. The cells were plated in 96-well plates at a density of 0.5×10^5 cells per well and pre-incubated for 10 minutes. Cells were exposed for 15 minutes at 37° C. to peptides of the present invention dissolved in DMSO (final DMSO concentration of 1%) at a concentration range of 0.05-5000 nM in a total assay volume of 200 μL. NDP-α-MSH was used as the reference agonist. cAMP levels were determined by an HTRF® cAMP cell-based assay system from Cisbio Bioassays utilizing cryptate-labeled anti-cAMP and d2-labeled cAMP, with plates read on a Perkin-Elmer Victor plate reader at […]. Data analysis was performed by nonlinear regression analysis with Graph-Pad Prism® software. The maximum efficacies of the test peptides of the present invention were compared to that achieved by the reference melanocortin agonist NDP-αMSH. […]

C57BL/6 male DIO mice = test: Body weight and food intake in vivo study in diet induced obese (DIO) mice; set-up: species or system mouse; conditions: for Body Weight Change (%) Mean / Food Intake - 24 Hours (g) Mean: 1 mg/kg subcutaneous twice daily
Procedure: Compound 7.1 was assessed in a body weight and food intake in vivo study in diet induced obese (DIO) mice. C57BL/6 male DIO mice were utilized, that were 17 weeks of age on arrival. Animals were pre-conditioned on a high-fat diet for 11 weeks by Jackson Labs. […] Animals were single housed within a limited access rodent facility, and provided ad libitum with a commercial rodent diet and free access to drinking water. Animals were randomized into five groups, a vehicle group, three dose levels of compound 7.1 (3 mg/kg, 10 mg/kg and 30 mg/kg), and Peptide A, a positive control cyclic peptide of the formula Ac-Arg-cyclo(Om-Asn-D-Phe-Arg-Trp-Glu)-NH2. Following three days of sham dosing, animals were dosed for three days, with vehicle or Compound 7.1 dosed orally once daily at within one hour of lights out in the AM, and Peptide A dosed by subcutaneous injection twice daily within one hour before lights out and six hours after lights out. Body weights were measured one hour prior to lights out, and feed weights were measured both one hour prior to lights out and six hours post lights out.
• *p<0.05 vs. sham (vehicle control) using two-way ANOVA followed by Dunnett's post-test. • **p<0.01 vs sham (vehicle control) using two-way ANOVA followed by Dunnett's post-test.

T1 sequence (P32245 whole entry): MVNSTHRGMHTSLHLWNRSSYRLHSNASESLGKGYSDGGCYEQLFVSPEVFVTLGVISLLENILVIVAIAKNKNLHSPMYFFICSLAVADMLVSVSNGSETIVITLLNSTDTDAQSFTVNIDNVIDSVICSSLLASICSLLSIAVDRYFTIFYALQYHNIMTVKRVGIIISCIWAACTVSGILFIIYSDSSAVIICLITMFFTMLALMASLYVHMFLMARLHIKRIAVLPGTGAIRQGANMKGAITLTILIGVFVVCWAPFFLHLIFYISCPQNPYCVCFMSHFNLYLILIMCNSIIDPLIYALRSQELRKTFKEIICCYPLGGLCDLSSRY

Row | Ki (MC4r [1]) [nM] | EC50 (MC4r [2]) [nM] | Emax (MC4r [2]; read-out: relative efficacy, compared to NDP-α-MSH) [%] | Compound | Body Weight Change (%) Mean (C57BL/6 male DIO mice; Day 0) [%] | Food Intake - 24 Hours (g) Mean (C57BL/6 male DIO mice; Day 0, 24 hours post lights out) | Body Weight Change (%) Mean (C57BL/6 male DIO mice; Day 1) | Food Intake - 24 Hours (g) Mean (C57BL/6 male DIO mice; Day 1, 24 hours post lights out) | Body Weight Change (%) Mean (C57BL/6 male DIO mice; Day 2) | Food Intake - 24 Hours (g) Mean (C57BL/6 male DIO mice; Day 2, 24 hours post lights out) | Body Weight Change (%) Mean (C57BL/6 male DIO mice; Day 3) | feed intake (C57BL/6 male DIO mice; 1 mg/kg, 24 hours post lights out, entirety of the study, vs sham) | body weight (C57BL/6 male DIO mice; two times daily 1 mg/kg, throughout the study)
1 | 5 | 5 | 19 | CNC(C)(C)C(=O)N[C@H](Cc1ccc(Cl)cc1)C(=O)N1CCN(N(CC(C)C)C2CCN(C(C)=O)CC2)CC1 [Compound 7.9, N-[(1R)-2-[4-[(1-acetyl-4-piperidyl)-isobutyl-amino]piperazin-1-yl]-1-[(4-chlorophenyl)methyl]-2-oxo-ethyl]-2-methyl-2-(methylamino)propanamide] | – | – | – | – | – | – | – | – | –
2 | – | – | – | Ac-Arg-cyclo(Om-Asn-D-Phe-Arg-Trp-Glu)-NH2 [Peptide A, reference compound] | 0 | 0.99** g | −5.69** % | 1.10** g | −8.37** % | 1.67** g | −8.78** % | significantly inhibited feed intake | decreased animal body weights
